Data as given in patent US20100267561A1, “HERBICIDAL PYRIDAZINONE DERIVATIVES” (priority 2007, published 2010).

Assays:
Experiment in all cases: Test B pre-/postemergence plant response
Format in all cases: in vivo
[1] = system: blackgrass (Alopecurus myosuroides); settings: for Blackgrass plant response rating: 8 g ai/ha
In short: (§1)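 Visual scoring from 0 (no effect) to 100 (complete control) against untreated controls was done 13 to 15 days after greenhouse treatment. Chemicals were formulated in a surfactant-containing non-phytotoxic solvent and applied to soil preemergence or to 1- to 4-leaf (2-18 cm) plants postemergence.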

[2] = system: eastern black (E.B.) nightshade (Solanum ptycanthum); settings: Preemergence; for Nightshade, E. B. plant response rating: scale 0 to 100
In short: as §1

corn (Zea mays) = system: corn (Zea mays)
In short: as §1

[3] = system: lambsquarters (Chenopodium album)
In short: as §1

kochia (Kochia scoparia) = settings: for Kochia plant response rating: postemergence, 0-100 scale; for Plant response rating, Kochia: Postemergence
In short: as §1

[4] = system: Italian ryegrass (Lolium multiflorum)
In short: as §1

[5] = system: common ragweed (Ambrosia elation)
In short: as §1

[6] = system: giant foxtail (Setaria faberii)
In short: as §1

[7] = system: johnsongrass (Sorghum halepense)
In short: as §1

[8] = system: bermudagrass (Cynodon dactylon); settings: for Bermudagrass plant response rating: 8 g ai/ha
In short: as §1

[9] = system: yellow nutsedge (Cyperus esculentus)
In short: as §1

[10] = system: surinam grass (Brachiaria decumbens)
In short: as §1

wild oat (Avena fatua) = system: wild oat (Avena fatua)
In short: as §1

[11] = system: morningglory (Ipomoea coccinea)
In short: as §1

[12] = Postemergence, 16 g ai/ha, scale 0 to 100
[13] = Postemergence, 31 g ai/ha, scale 0 to 100
[14] = Postemergence, 62 g ai/ha, scale 0 to 100, 0 no effect, 100 complete control
[15] = Preemergence, 16 g ai/ha, scale 0 to 100 (0 no effect, 100 complete control)
[16] = Preemergence, 31 g ai/ha, scale 0 to 100 (0 no effect, 100 complete control)
[17] = Preemergence, 62 g ai/ha, 0 to 100 scale, 0 no effect, 100 complete control
[18] = 8 g ai/ha, postemergence, 0-100 scale
[19] = Preemergence, 8 g ai/ha, scale 0 to 100
[20] = Preemergence, 16 g ai/ha, scale 0 to 100
[21] = 16 g ai/ha, postemergence, 0-100 scale

## CCc1cc(-c2ccc(Br)cc2)nn1-c1c(O)c(C)nn(C)c1=O [Compound 74]
[1]; postemergence, 0-100 scale
  Blackgrass plant response rating: 90
[1]; [12]
  Plant response rating, Blackgrass: 95
[1]; [13]
  Plant response rating, Blackgrass: 98
[1]; [14]
  Plant response rating, Blackgrass: 100
[1]; [15]
  Plant response rating, Blackgrass: 100
[1]; [16]
  Plant response rating, Blackgrass: 100
[1]; [17]
  Plant response rating, Blackgrass: 100
[1]; Preemergence, scale 0 to 100
  Blackgrass plant response rating: 85
[2]; 31 g ai/ha, scale 0 to 100 (0 no effect, 100 complete control)
  Plant response rating, Nightshade, E. B.: 0
[2]; 62 g ai/ha, 0 to 100 scale, 0 no effect, 100 complete control
  Plant response rating, Nightshade, E. B.: 65
[2]; 8 g ai/ha
  Nightshade, E. B. plant response rating: 0
[2]; 16 g ai/ha
  Nightshade, E. B. plant response rating: 0
Corn (Zea mays); [18]
  Corn plant response rating: 98
Corn (Zea mays); [12]
  Plant response rating, Corn: 100
Corn (Zea mays); [13]
  Plant response rating, Corn: 100
Corn (Zea mays); [14]
  Plant response rating, Corn: 100
Corn (Zea mays); [16]
  Plant response rating, Corn: 90
Corn (Zea mays); [17]
  Plant response rating, Corn: 98
Corn (Zea mays); [19]
  Corn plant response rating: 75
Corn (Zea mays); [20]
  Corn plant response rating: 80
[3]; [18]
  Lambsquarters plant response rating: 0
[3]; [21]
  Lambsquarters plant response rating: 0
[3]; [13]
  Plant response rating, Lambsquarters: 0
[3]; [14]
  Plant response rating, Lambsquarters: 0
[3]; [16]
  Plant response rating, Lambsquarters: 0
[3]; [17]
  Plant response rating, Lambsquarters: 20
[3]; [19]
  Lambsquarters plant response rating: 0
[3]; [20]
  Lambsquarters plant response rating: 0
Kochia (Kochia scoparia); 8 g ai/ha
  Kochia plant response rating: 0
Kochia (Kochia scoparia); 16 g ai/ha
  Kochia plant response rating: 0
Kochia (Kochia scoparia); 31 g ai/ha, scale 0 to 100
  Plant response rating, Kochia: 0
Kochia (Kochia scoparia); 62 g ai/ha, scale 0 to 100, 0 no effect, 100 complete control
  Plant response rating, Kochia: 0
[4]; [18]
  Ryegrass, Italian plant response rating: 98
[4]; [21]
  Ryegrass, Italian plant response rating: 100
[4]; [13]
  Plant response rating, Ryegrass, Italian: 100
[4]; [14]
  Plant response rating, Ryegrass, Italian: 100
[4]; [16]
  Plant response rating, Ryegrass, Italian: 100
[4]; [17]
  Plant response rating, Ryegrass, Italian: 100
[4]; [19]
  Ryegrass, Italian plant response rating: 60
[4]; [20]
  Ryegrass, Italian plant response rating: 98
[5]; [18]
  Ragweed plant response rating: 0
[5]; [21]
  Ragweed plant response rating: 0
[5]; [13]
  Plant response rating, Ragweed: 0
[5]; [14]
  Plant response rating, Ragweed: 0
[5]; [16]
  Plant response rating, Ragweed: 0
[5]; [17]
  Plant response rating, Ragweed: 0
[5]; [19]
  Ragweed plant response rating: 0
[5]; [20]
  Ragweed plant response rating: 0
[6]; [18]
  Foxtail, Giant plant response rating: 80
[6]; [12]
  Plant response rating, Foxtail, Giant: 85
[6]; [13]
  Plant response rating, Foxtail, Giant: 95
[6]; [14]
  Plant response rating, Foxtail, Giant: 98
[6]; [16]
  Plant response rating, Foxtail, Giant: 100
[6]; [17]
  Plant response rating, Foxtail, Giant: 100
[6]; [19]
  Foxtail, Giant plant response rating: 80
[6]; [20]
  Foxtail, Giant plant response rating: 98
[7]; [18]
  Johnsongrass plant response rating: 98
[7]; [21]
  Johnsongrass plant response rating: 98
[7]; [13]
  Plant response rating, Johnsongrass: 100
[7]; [14]
  Plant response rating, Johnsongrass: 100
[7]; [16]
  Plant response rating, Johnsongrass: 90
[7]; [17]
  Plant response rating, Johnsongrass: 100
[7]; [19]
  Johnsongrass plant response rating: 70
[7]; [20]
  Johnsongrass plant response rating: 85
[8]; postemergence, 0-100 scale
  Bermudagrass plant response rating: 20
[8]; [12]
  Plant response rating, Bermudagrass: 85
[8]; [13]
  Plant response rating, Bermudagrass: 95
[8]; [14]
  Plant response rating, Bermudagrass: 98
[8]; Preemergence, scale 0 to 100 (0 no effect, 100 complete control)
  Bermudagrass plant response rating: 100
[8]; [15]
  Plant response rating, Bermudagrass: 100
[8]; [16]
  Plant response rating, Bermudagrass: 100
[8]; [17]
  Plant response rating, Bermudagrass: 100
[9]; [18]
  Nutsedge, Yellow plant response rating: 0
[9]; [21]
  Nutsedge, Yellow plant response rating: 0
[9]; [13]
  Plant response rating, Nutsedge, Yellow: 0
[9]; [14]
  Plant response rating, Nutsedge, Yellow: 0
[9]; [16]
  Plant response rating, Nutsedge, Yellow: 0
[9]; [17]
  Plant response rating, Nutsedge, Yellow: 0
[9]; [19]
  Nutsedge, Yellow plant response rating: 0
[9]; [20]
  Nutsedge, Yellow plant response rating: 0
[10]; [18]
  Surinam Grass plant response rating: 85
[10]; [21]
  Surinam Grass plant response rating: 100
[10]; [13]
  Plant response rating, Surinam Grass: 100
[10]; [14]
  Plant response rating, Surinam Grass: 100
[10]; [16]
  Plant response rating, Surinam Grass: 100
[10]; [17]
  Plant response rating, Surinam Grass: 100
[10]; [19]
  Surinam Grass plant response rating: 100
[10]; [20]
  Surinam Grass plant response rating: 100
Wild oat (Avena fatua); [18]
  Oat, Wild plant response rating: 98
Wild oat (Avena fatua); [21]
  Oat, Wild plant response rating: 98
Wild oat (Avena fatua); [13]
  Plant response rating, Oat, Wild: 100
Wild oat (Avena fatua); [14]
  Plant response rating, Oat, Wild: 100
Wild oat (Avena fatua); [16]
  Plant response rating, Oat, Wild: 70
Wild oat (Avena fatua); [17]
  Plant response rating, Oat, Wild: 80
Wild oat (Avena fatua); [19]
  Oat, Wild plant response rating: 50
Wild oat (Avena fatua); [20]
  Oat, Wild plant response rating: 70
[11]; [18]
  Morningglory plant response rating: 0
[11]; [21]
  Morningglory plant response rating: 0
[11]; [13]
  Plant response rating, Morningglory: 0
[11]; [14]
  Plant response rating, Morningglory: 0
[11]; [16]
  Plant response rating, Morningglory: 0
[11]; [17]
  Plant response rating, Morningglory: 0
[11]; [19]
  Morningglory plant response rating: 0
[11]; [20]
  Morningglory plant response rating: 0
